Experimental data from publication PMC4512978, “Synthesis and evaluation in rats of homologous series of [^18F]-labeled dopamine D2/3 receptor agonists based on the 2-aminomethylchroman scaffold as potential PET tracers” (EJNMMI Research, 2015).

Test system: D2/3R
Experiment: Kinetic analysis of PET data (1TCM, 2TCM, Logan, SRTM);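 as to 2TCM BPND change relative to control: Raclopride 1 mg/kg intravenous pretreatment versus saline controls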;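 as to SRTM BPND change relative to control: Raclopride 1 mg/kg intravenous pretreatment versus saline controls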
Format: in vivo, Sprague-Dawley rats
Parameters: key to SRTM BPND / 1TCM BPND / 2TCM BPND (VT-based): BPND = VT(target)/VT(cerebellum) − 1 (or SRTM, cerebellum reference); SRTM BPND change relative to control / 1TCM BPND change relative to control / 2TCM BPND change relative to control / Logan BPND change relative to control: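 Raclopride 1 mg/kg intravenous pretreatment versus saline controls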; 1TCM VT / 2TCM VT: unit not given here
Method: Kinetic analysis is described using the nomenclature proposed by Innis et al.. ROI TACs of [^18F]FEt-AMC13 were analyzed with one-tissue and two-tissue compartmental models of reversible binding (1TCM and 2TCM, respectively) to obtain individual rate constants. From these, the regional distribution volumes (VT) were calculated and compared to those obtained with Logan graphical analysis. Binding potentials (BPND) were calculated from the distribution ratios as VT (target) / VT (cerebellum) – 1, or estimated with the simplified reference tissue model (SRTM) using the cerebellum as reference region.
Metabolite-corrected plasma-derived arterial input function and whole blood time-activity curve were used for Logan, 1TCM, and 2TCM analyses. Fractional cerebral blood volume was set to 3.6 % [27]. For one rat in the raclopride-treated group, no input curves could be obtained; therefore, its PET data were only analyzed with SRTM.
Degree of D2/3R-specific binding of the tracers was characterized by BPND (as given above) or the specific binding ratio (SBR) given as target region activity/cerebellar activity - 1. Both were calculated under control conditions and in response to the raclopride challenge.

[1] = Brainstem, raclopride, listed as [18F]FEt-AMC13

## Oc1ccc2c(c1)O[C@@H](CNCc1ccc(OCC[18F])cc1)CC2 [[^18F]FEt-AMC13]
1 mg/kg raclopride, depending on the kinetic model
  fall of striatal BPND: 18–27%
Brainstem, control
  1TCM BPND: 0.21±0.03
  1TCM VT: 5.67±0.33
  2TCM BPND (VT-based): 0.22 ± 0.02
  2TCM VT: 6.17±0.52
  Logan BPND: 0.21±0.02
  Logan VT: 6.12±0.57
  SRTM BPND: 0.18 ± 0.04
Brainstem, control rat A
  1TCM K1: 0.63 ± 0.04 mL/g/min
  1TCM k2: 0.10 ± 0.02 min⁻¹
  2TCM K1: 2.03 ± 0.40 mL/g/min
  2TCM k2: 3.53 ± 1.32 min⁻¹
  2TCM k3: 1.05 ± 0.19 min⁻¹
  2TCM k4: 0.10 ± 0.01 min⁻¹
Brainstem, control rat B
  1TCM K1: 0.60 ± 0.03 mL/g/min
  1TCM k2: 0.11 ± 0.01 min⁻¹
  2TCM K1: 0.96 ± 0.11 mL/g/min
  2TCM k2: 0.89 ± 0.30 min⁻¹
  2TCM k3: 0.72 ± 0.83 min⁻¹
  2TCM k4: 0.15 ± 1.20 min⁻¹
Brainstem, control rat C
  1TCM K1: 0.68 ± 0.02 mL/g/min
  1TCM k2: 0.12 ± 0.01 min⁻¹
  2TCM K1: 1.11 ± 0.22 mL/g/min
  2TCM k2: 1.19 ± 0.59 min⁻¹
  2TCM k3: 1.10 ± 1.86 min⁻¹
  2TCM k4: 0.21 ± 2.66 min⁻¹
Brainstem, control rat D
  1TCM K1: 0.71 ± 0.03 mL/g/min
  1TCM k2: 0.13 ± 0.01 min⁻¹
  2TCM K1: 4.75 ± 5.87 mL/g/min
  2TCM k2: 19.6 ± 19.9 min⁻¹
  2TCM k3: 2.79 ± 15.04 min⁻¹
  2TCM k4: 0.12 ± 37.81 min⁻¹
Brainstem, raclopride
  1TCM BPND: 0.13±0.03
  1TCM BPND change relative to control: -41%
  1TCM VT: 4.99±0.56
  2TCM BPND (VT-based): 0.10 ± 0.02
  2TCM BPND change relative to control: −53%
  2TCM VT: 5.46±0.36
  Logan BPND: 0.11±0.02
  Logan BPND change relative to control: -47%
  Logan VT: 5.53±0.26
  SRTM BPND: 0.07 ± 0.03
  SRTM BPND change relative to control: −60%
[1]
  2TCM BPND (VT-based): 0.10±0.02
  2TCM BPND change relative to control: -53%
  SRTM BPND: 0.07±0.03
  SRTM BPND change relative to control: –60%
Cerebellum, control
  1TCM VT: 4.68±0.34
  2TCM VT: 5.08±0.49
  Logan VT: 5.06±0.53
Cerebellum, control rat A
  1TCM K1: 0.57 ± 0.04 mL/g/min
  1TCM k2: 0.11 ± 0.02 min⁻¹
  2TCM K1: 2.10 ± 0.32 mL/g/min
  2TCM k2: 4.90 ± 1.30 min⁻¹
  2TCM k3: 1.23 ± 0.13 min⁻¹
  2TCM k4: 0.10 ± 0.005 min⁻¹
Cerebellum, control rat B
  1TCM K1: 0.61 ± 0.02 mL/g/min
  1TCM k2: 0.13 ± 0.01 min⁻¹
  2TCM K1: 0.81 ± 0.05 mL/g/min
  2TCM k2: 0.53 ± 0.24 min⁻¹
  2TCM k3: 0.46 ± 0.55 min⁻¹
  2TCM k4: 0.20 ± 0.71 min⁻¹
Cerebellum, control rat C
  1TCM K1: 0.62 ± 0.01 mL/g/min
  1TCM k2: 0.13 ± 0.01 min⁻¹
  2TCM K1: 0.86 ± 0.21 mL/g/min
  2TCM k2: 1.13 ± 1.45 min⁻¹
  2TCM k3: 1.84 ± 1.78 min⁻¹
  2TCM k4: 0.34 ± 0.12 min⁻¹
Cerebellum, control rat D
  1TCM K1: 0.68 ± 0.03 mL/g/min
  1TCM k2: 0.16 ± 0.02 min⁻¹
  2TCM K1: 48.7 ± 819.7 mL/g/min
  2TCM k2: 298 ± 5152 min⁻¹
  2TCM k3: 3.55 ± 1.05 min⁻¹
  2TCM k4: 0.13 ± 0.03 min⁻¹
Cerebellum, raclopride
  1TCM VT: 4.43±0.40
  2TCM VT: 4.96±0.44
  Logan VT: 4.99±0.30
Cortex, control
  1TCM BPND: 0.18±0.05
  1TCM VT: 5.53±0.38
  2TCM BPND (VT-based): 0.13 ± 0.04
  2TCM VT: 5.75±0.45
  Logan BPND: 0.13±0.03
  Logan VT: 5.69±0.49
  SRTM BPND: 0.11 ± 0.03
Cortex, control rat A
  1TCM K1: 0.37 ± 0.02 mL/g/min
  1TCM k2: 0.06 ± 0.01 min⁻¹
  2TCM K1: 1.68 ± 0.46 mL/g/min
  2TCM k2: 7.83 ± 1.43 min⁻¹
  2TCM k3: 1.84 ± 0.62 min⁻¹
  2TCM k4: 0.06 ± 4.47 min⁻¹
Cortex, control rat B
  1TCM K1: 0.47 ± 0.02 mL/g/min
  1TCM k2: 0.09 ± 0.01 min⁻¹
  2TCM K1: 0.66 ± 0.04 mL/g/min
  2TCM k2: 0.64 ± 0.21 min⁻¹
  2TCM k3: 0.72 ± 0.24 min⁻¹
  2TCM k4: 0.16 ± 0.02 min⁻¹
Cortex, control rat C
  1TCM K1: 0.41 ± 0.01 mL/g/min
  1TCM k2: 0.07 ± 0.002 min⁻¹
  2TCM K1: 0.43 ± 0.12 mL/g/min
